These results are taken from ChEMBL document CHEMBL4020796, “Evaluation of guggulsterone derivatives as novel kidney cell protective agents against cisplatin-induced nephrotoxicity” (2017).

Active and inactive are the calls of the source. The rule behind the calls is not given here. Some results are limits rather than exact numbers.

Assay [1] has as its system LLC-PK1. The experiment in a line: Renoprotective activity in pig LLC-PK1 cells assessed as inhibition of cisplatin-induced oxidative stress by measuring cell viability up to 250 uM after 24 hrs by MTT assay. It counts as functional, cell-based. The note with it: Sus scrofa. In general terms: Tetrazolium dyes change colour on reduction, which living cells bring about.

Assay [2] is filed under the species Sus scrofa. The experiment in a line: Inhibition of cisplatin-induced MAPK p38 phosphorylation in pig LLC-PK1 cells at 10 to 50 uM after 24 hrs by Western blot method. It counts as cell-based. A general note: A western blot detects proteins with antibodies after separation by electrophoresis.
Assay [3] relates to LLC-PK1. In words: Renoprotective activity in pig LLC-PK1 cells assessed as inhibition of cisplatin-induced cytotoxicity by measuring cell viability at 10 to 50 uM by phase contrast microscopic method. It counts as functional, cell-based. The note with it: Sus scrofa.
Assay [4] has as its system LLC-PK1. In words: Renoprotective activity in pig LLC-PK1 cells assessed as inhibition of cisplatin-induced cell death by measuring cell viability at 50 uM by flow cytometry. It counts as functional, cell-based. The note with it: Sus scrofa. Background: A flow cytometer gives signals particle by particle.
Assay [5] is filed under the species Sus scrofa. In words: Inhibition of cisplatin-induced MAPK JNK phosphorylation in pig LLC-PK1 cells at 10 to 50 uM after 24 hrs by Western blot method. It counts as cell-based.
In assay [6] the test system is LLC-PK1. In words: Renoprotective activity in pig LLC-PK1 cells assessed as inhibition of cisplatin-induced cleaved caspase-3 levels at 10 to 50 uM after 24 hrs by Western blot method. Conditions: Sus scrofa. It counts as functional, cell-based.
The test system of assay [7] is LLC-PK1. The experiment in a line: Renoprotective activity in pig LLC-PK1 cells assessed as inhibition of cisplatin-induced oxidative stress by measuring cell viability at 25 uM after 24 hrs by MTT assay relative to control. It counts as functional, Sus scrofa.

As to `C/C=C1/[C@@H](n2cc(-c3ccc(C)cc3)nn2)C[C@H]2[C@@H]3CCC4=CC(=O)CC[C@]4(C)[C@H]3CC[C@]12C`, the inhibition entry in the assay on LLC-PK1 [1] was “Active”. Same read-out and setting: to `C/C=C1/[C@@H](n2cc(CCCC)nn2)C[C@H]2[C@@H]3CCC4=CC(=O)CC[C@]4(C)[C@H]3CC[C@]12C` belongs “inactive”; to `C/C=C1/[C@@H](n2cc(CCCC#N)nn2)C[C@H]2[C@@H]3CCC4=CC(=O)CC[C@]4(C)[C@H]3CC[C@]12C`, “inactive”. For `C/C=C1/[C@@H](n2cc(-c3ccccc3)nn2)C[C@H]2[C@@H]3CCC4=CC(=O)CC[C@]4(C)[C@H]3CC[C@]12C`, the inhibition entry in the assay with LLC-PK1 [1] is “Active”. For the compound `C/C=C1/[C@@H](n2cc(-c3ccc(F)cc3)nn2)C[C@H]2[C@@H]3CCC4=CC(=O)CC[C@]4(C)[C@H]3CC[C@]12C`, the inhibition result with LLC-PK1 [1] is “Active”.

Take `C/C=C1/[C@@H](n2cc(CO)nn2)C[C@H]2[C@@H]3CCC4=CC(=O)CC[C@]4(C)[C@H]3CC[C@]12C`: the inhibition entry in the assay listed under Sus scrofa [2], with LLC-PK1 [3], in the assay with LLC-PK1 [4], in the assay listed under Sus scrofa [5] and in the assay with LLC-PK1 [6] was “Active” throughout. For the same compound, the Activity in the assay with LLC-PK1 [7] is over 90%.
